Laboratory results from patent publication US20260055118A1, “VISIBLE LIGHT SENSITIVE PHOTOREMOVABLE PROTECTING GROUPS, PREPARATION PROCESS THEREOF, PHOTOACTIVATABLE CONJUGATES COMPRISING THEM AND USES THEREOF” (HUN-REN TERMÉSZETTUDOMÁNYI KUTATÓKÖZPONT, priority 2022, published 2026).

Tests used:
[1] = Spectroscopic properties of the target conjugates in PBS; format: physicochemical; conditions: for ε (molar absorption coefficient): at the absorption maximum
Method: All starting materials were obtained from commercial suppliers and used without further purification. Analytical thin-layer chromatography (TLC) was performed on silica gel 60 F254 precoated aluminum TLC plates from Merck. Flash column chromatography was performed on Teledyne Isco CombiFlash® Rf+ automated flash chromatographer with silica gel (25-40 μm) from Zeochem. NMR spectra were recorded on a Varian Inova 500 MHz spectrometer. Chemical shifts (δ) are given in parts per million (ppm) using solvent signals or TMS as the reference. Coupling constants (J) are reported in Hertz (Hz). Analytical RP-HPLC-UV/Vis-MS measurements were employed using a Shimadzu LCMS-2020 instrument applying a Gemini C18 column (100×2.00 mm I.D.) in which the stationary phase is […] with a pore size of 110 Å. The chromatograms were detected by a UV-Vis diode array (190-800 nm) and an ESI-MS detector. The following linear gradient elution profile was applied, 0 min 0% B; 6.5 min 100% B; 7 min 0% B; 8 min. 0% B) with eluent A (2% HCOOH, 5% MeCN and 93% water) and B (2% HCOOH, 80% MeCN and 18% water) at a flow rate of 1.0 mL min-1 at 30° C. The samples were dissolved in MeCN—water mixtures. Spectroscopic measurements were performed on a Jasco FP 8300 spectrofluorometer. Quartz cuvettes with path length of 1 cm were used.
The spectroscopic properties of the target conjugates were determined in PBS. […] Compounds with Q=O have absorption bands in the green-yellow region while Q=CMe2 derivatives absorb in the red (up to 700 nm). All of the compounds have moderate to high absorption coefficients and significant fluorescence. The spectroscopic details can be found in Table 1. In the table, λmax means absorption maximum; λem means fluorescence emission maximum; s means molar absorption coefficient (at the absorption maximum).

[2] = Uncaging quantum yield determination relative to BODIPY reference; format: physicochemical; conditions: for ε × Φu, uncaging cross-section / quantum efficiency: at the wavelength in parentheses beside each value (538-660 nm); for Φu, uncaging quantum yield: calculated from active agent release; for Φu, uncaging quantum yield / Φdeg, degradation quantum yield: green light irradiation; for Φdeg, degradation quantum yield: calculated from the disappearance of the target conjugate
Method: The relative photochemical quantum yields of the uncaging reactions together with the degradation quantum yields were determined from the results of the quantitative HPLC-UV experiments. In all cases, green light irradiation was used since all target conjugates absorbed in this range as well as the reference BODIPY. The photochemical quantum yields were determined using the following equation:
[formula] • where • Φu is the photochemical quantum yield of the sample • Φu,ref is the photochemical quantum yield of the reference • k is the obtained reaction rate constant of the photoreaction of the sample • kref is the obtained reaction rate constant of the photoreaction of the reference • c is the concentration of the sample • cref is the concentration of the reference • V is the volume of the sample • Vref is the volume of the reference • a is the absorption correction factor of the sample • aref is the absorption correction factor of the reference
The absorption correction factors (a) were determined from the molar absorption coefficients and the green LED emission data obtained by the fluorimeter. […] In other words, the transmittance at each wavelength together with the emission data of the light source can be used to calculate the percentage of absorbed photons according to the following equation:
[formula] • where • T(λ) is the transmittance at each wavelength (determined from the molar absorption coefficients) • F(λ) is the LED emission at each wavelength • λmin, λmax is the LED emission range.
The rate constants of the photoreactions were determined by considering the reactions monoexponential with an initial linear phase (up to 10-20% degradation). First, the concentration vs. HPLC-UV peak were determined for each cargo moieties. […] The rate constants were determined for both the reference (with known Φu) and the sample. For reference, a commonly known BODIPY derivative was used with a similar phenylacetic acid-derived cargo unit (substrate 7 from REF^40), Φu=0.15%:
The calculated photochemical quantum yields together with uncaging cross-sections or quantum efficiencies (product of the molar absorption coefficient at a given wavelength, shown in parentheses and the photochemical quantum yield) are shown in Table 2. In the table, Φu is the photochemical quantum yield of the release; Φdeg is the photochemical quantum yield of degradation; ε×Φu is the uncaging cross-section or quantum efficiency of the release at a given wavelength in parentheses.

[3] = Uncaging experiments, LED irradiation followed by HPLC-UV-MS; format: physicochemical; conditions: green light, 60 s
Method: The uncaging experiments were performed using green (4 W input power, λmax=549 nm half-width: 16 nm, output power: 72 mW), orange (4 W input power, λmax=605 nm half-width: 10 nm, output power: 140 mW) and red (4 W input power, λmax=658 nm half-width: 10 nm, output power: 210 mW) LEDs as light source. Sample solutions were prepared, each containing 1 ml of solvent (90% v/v water-MeCN or 90% PBS-MeCN or 100% methanol for the photochemical quantum yield determination) and 0.1 mM or 0.05 mM concentration of the photoactivatable conjugates. The samples were irradiated for a given time using continuous water cooling for the light source. Then, the samples were transferred to the HPLC-UV-MS system and the chromatograms were recorded. The traces at 195 nm, 254 nm or 369 nm (dependent on the cargo moieties) and at the absorption maxima of the photoremovable protecting groups (530 nm, 570 nm or 640 nm) were compared and the corresponding peaks were integrated and compared to reference calibration sets. The possible photoproducts were identified by their corresponding m/z value and also from the UV/VIS spectra from the DAD-equipped instrument. For the dark stability experiments, the HPLC sample solutions were kept in the dark and chromatograms were recorded multiple times.
The photouncaging was evaluated by HPLC-MS using green (4 W input power, λmax=549 nm half-width: 16 nm, output power: 72 mW), orange (4 W input power, λmax=605 nm half-width: 10 nm, output power: 140 mW) and red (4 W input power, λmax=658 nm half-width: 10 nm, for Q=CMe2 output power: 210 mW) LED irradiation. For all compounds the experiments were performed in 90% water/MeCN mixtures as well as in 90% PBS/MeCN (0.1 mM concentration). In all cases, the irradiation led to the release of the model active agents with significant differences based on the photoremovable protecting group, cargo unit and the connecting chemical moiety as well as on the water content of the uncaging medium. Comparing the green light absorbing target conjugates, irradiation of 39 led to the release of 54% phenylacetic acid in 60 s (FIG. 6b), while 180 s (for 50%) was required for the same result in case of 41. Approximately 65% of phenylacetic acid was released after 180 s of irradiation with orange light from model target conjugate 41 (FIG. 6a). The current state of the art BODIPY derivative (for the structure, see the next section),^20,21 released only 12% phenylacetic acid after irradiation for 1800 s. Contrary to the general expectations that increasing the wavelength diminishes photolysis rates, the uncaging of the redshifted Q=CMe2 derivative 43 was also very effective, reaching >70% release of phenylacetic acid in 120 s after red light irradiation (FIG. 6c). The high efficiency of 43 as a red light-activatable photoremovable protecting group was also compared to a π-extended BODIPY derivative (substrate 7 in REF^21, using methanol as the solvent in a concentration of 0.1 mM), the current state of the art in this region of visible light.
Importantly, except in the case of compounds wherein the connecting chemical moiety was a carbonate moiety (i.e., compound 51, FIG. 6f), the target conjugates were stable in water as well as in PBS for 24 hours in the dark. The stability and uncaging rates of several leaving groups was also assessed. Comparing the most important functional groups (carboxylic acid, amine, phenol, alcohol) in potential active agents connected via the typical linkages in the target conjugates, the carbonate bond was the most labile (compound 51, >70% decomposition in 30 s with red light at 50% power) although the long-term dark stability was poor. None of the other model active agents were released in significant quantities, however, after 24-28 hours in the dark (for dark stability data see FIGS. 6a-6h, right side).
Using HPLC-MS, not only the appearance of the released model active agents could be monitored but also the products of photolysis were detectable. […]

SK-OV-3 cells = assay: Cytotoxicity determination, MTT assay, with light irradiation and in the dark; format: cell-based, human; conditions: for cell viability: DARK
Method: A viability test was carried out to assess the toxicity of SN38 as well as the photoremovable protecting group-SN38 conjugates X1′-SN38 and X2′-SN38 after light irradiation and in the dark on SKOV3 cells. Cells were transferred into a 48-well plate (Thermo Fisher Scientific, 130187) (4,500 cells/well) and incubated for 20-24 h at 37° C. in a 5% CO2 atmosphere in McCoy's 5A (Modified) Medium, HEPES (Gibco 22330021) supplemented with 10% FBS (Gibco 10500-064), 1% penicillin-streptomycin (Gibco 15140-122). Cells were treated with compounds in the concentration range of 10^−11-10^−4 M for 90 min followed by light irradiation or kept in the dark at 37° C. in 5% CO2 atmosphere. After treatment and irradiation, cells were kept at 37° C. in 5% CO2 atmosphere for 72 hours. After the incubation period, supernatants were replaced with 0.5 mg/ml MTT (3-(4,5-dimethylthiazol-2-yl)-2,5-diphenyltetrazolium bromide; Sigma M5655-1G) solution (in complete DMEM: Dulbecco's modified Eagle's medium (DMEM, Gibco 41965-039), supplemented with 10% FBS (Gibco 10500-064), 1% penicillin-streptomycin (Gibco 15140-122), 1% Glutamax (Gibco 35050-061) and 1% sodium pyruvate (Life Technologies, Gibco 11360-070)) and incubated for 120 min at 37° C. in the dark. The insoluble formazan crystals were dissolved in 250 μl DMSO. Absorbance was detected at 540 nm using a Biotek Synergy 2 Cytation 3 imaging plate reader with Gen5 software version 3.08 (Biotek Winooski, VT, USA). Viability was expressed as percentage (n=3) of the readings of untreated control cells.
To determine phototoxic properties of compounds X1′-SN38 and X2′-SN38, standard MTT assays were performed on SK—OV-3 cells. To irradiate multiple specimens, an LED panel was custom-made for a 48-well plate consisting of 24 LEDs using green (4 W input power, λmax=549 nm half-width: 16 nm, output power: 72 mW), orange (4 W input power, λmax=605 nm half-width: 10 nm, output power: 140 mW) and red (4 W input power, λmax=658 nm half-width: 10 nm, for Q=CMe2 output power: 210 mW) LED irradiation. The board was specifically designed for the plates and offer water cooling to minimize heat shock to cells. Every second well can be irradiated with an individual LED. First, the cytotoxicity of the free active agent, SN38 was determined to be EC50 ^˜6 nM. Treatment of cells with the photoactivatable SN38 derivatives for 72 hours in the absence of light (without washing) produced moderate cytotoxic effects, sigificantly lowering the effectiveness of the active agent. This confirms that SN38 is a suitable candidate for light-activated prodrug applications. […] Reducing the irradiation time down to 10 s still produced significant phototoxicity in higher concentrations (see FIG. 8a for compound X2′-SN38) even assuming incomplete uncaging as a result of the substantial dark stability of compound X2′-SN38.

Row | Compound | λem (fluorescence emission maximum) [1] [nm] | λmax (absorption maximum) [1] [nm] | ε (molar absorption coefficient) [1] | ε × Φu, uncaging cross-section / quantum efficiency [2] [M⁻¹ cm⁻¹] | Φu, uncaging quantum yield [2] [%] | Φdeg, degradation quantum yield [2] [%] | release of phenylacetic acid [3] [%] | cell viability (SK-OV-3 cells; 50 nM) [%] | cell viability (SK-OV-3 cells; 100 nM) [%] | cell viability (SK-OV-3 cells; 200 nM) [%] | EC50 (SK-OV-3 cells; dark, 72 h, MTT, read-out: Dark EC50 values) [nM]
1 | CC(OCc1ccccc1)C1=C2C=CC(=[N+]3CCCC3)C=C2C(C)(C)c2cc(N3CCCC3)ccc21.[I-] (centres unmarked) [Compound 35, 1-(10-(1-(benzyloxy)ethyl)-9,9-dimethyl-7-(pyrrolidin-1-yl)anthracen-2 (9H)-ylidene)pyrrolidin-1-ium iodide] | 659 | 635 | 81 200 M^−1cm^−1 |  |  |  |  |  |  |  | 
2 | CC(OC(=O)Cc1ccccc1)c1c2ccc(=O)cc-2oc2cc(N3CCCC3)ccc12 (centres unmarked) [Compound 39, 1-(3-oxo-6-(pyrrolidin-1-yl)-3H-xanthen-9-yl)ethyl 2-phenylacetate] | 564 | 538 | 22 700 M^−1cm^−1 | 1070 | 4.7 | 6.2 | 54 |  |  |  | 
3 | CC[N+]1=c2cc3c(cc2C(C)CC1(C)C)=C(C(C)OC(=O)Cc1ccccc1)c1cc2c4c(c1C3(C)C)CCCN4CCC2 (centres unmarked) [Compound 45] | 680 | 660 | 83 800 M^−1cm^−1 | 1390 | 1.6 | 2.6 |  |  |  |  | 
4 | CC(OC(=O)N1CCN(c2ccccc2)CC1)C1=C2C=CC(=[N+]3CCCC3)C=C2C(C)(C)c2cc(N3CCCC3)ccc21 (centres unmarked) [Compound 49, 1-(9,9-dimethyl-10-(1-((4-phenylpiperazine-1-carbonyl)oxy)ethyl)-7-(pyrrolidin-1-yl)anthracen-2 (9H)-ylidene)pyrrolidin-1-ium] | 673 | 637 | 75 100 M^−1cm^−1 | 690 | 0.92 | 1.7 |  |  |  |  | 
5 | CCc1c2c(nc3ccc(O)cc13)-c1cc3c(c(=O)n1C2)COC(=O)[C@]3(O)CC [SN38, 7-ethyl-10-hydroxycamptothecin, reference compound] |  |  |  |  |  |  |  | 29 | 27 | 30 | 6.2
